Test results as given in ChEMBL document CHEMBL1201862, “PubChem BioAssay data set” (2004).
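Results reflect a 48-hour exposure of cells in 96-well plates to compound at five concentrations. GI50 marks 50% less growth.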 The source made the active and inactive calls. No stated cut-off is given here; in the data, active = GI50 up to about 1.1 µM and inactive = higher.

Experiments:
Test in all cases: NCI-60 cell line screen, 48 h
[1] = tested on: Malme-3M
[2] = tested on: M19-MEL
[3] = tested on: HOP-18
[4] = tested on: CCRF-CEM
[5] = tested on: A549
[6] = tested on: HCT-15
[7] = tested on: DMS-273
[8] = tested on: SNB-19
[9] = tested on: SNB-78
[10] = tested on: SK-OV-3
[11] = tested on: SK-MEL-5
[12] = tested on: UACC-257
[13] = tested on: KM12
[14] = tested on: EKVX
[15] = tested on: CAKI-1
[16] = tested on: SW-620
[17] = tested on: RPMI-8226
[18] = tested on: HOP-92
[19] = tested on: UACC-62
[20] = tested on: SF-539
[21] = tested on: OVCAR-5
[22] = tested on: 786-0
[23] = tested on: UO-31
[24] = tested on: ACHN
[25] = tested on: SN12C
[26] = tested on: HCC 2998
[27] = tested on: IGROV-1
[28] = tested on: U-251
[29] = tested on: RXF 393
[30] = tested on: NCI-H226
[31] = tested on: SF-295
[32] = tested on: SK-MEL-2
[33] = tested on: SNB-75
[34] = tested on: HCT-116
[35] = tested on: OVCAR-4
[36] = tested on: OVCAR-3
[37] = tested on: SR
[38] = tested on: HOP-62
[39] = tested on: HL-60
[40] = tested on: NCI-H460
[41] = tested on: COLO 205
[42] = tested on: K562
[43] = tested on: HT-29
[44] = tested on: LXFL 529
[45] = tested on: DMS-114
[46] = tested on: SK-MEL-28
[47] = tested on: NCI-H23
[48] = tested on: MOLT-4
[49] = tested on: OVCAR-8
[50] = tested on: SF-268
[51] = tested on: NCI-H522
[52] = tested on: M14
[53] = tested on: DLD-1
[54] = tested on: MDA-MB-231
[55] = tested on: MDA-MB-435
[56] = tested on: PC-3
[57] = tested on: DU-145
[58] = tested on: BT-549
[59] = tested on: MCF7
[60] = tested on: A498
[61] = tested on: MDA-N
[62] = tested on: KM-20L2
[63] = tested on: Hs-578T
[64] = tested on: TK-10
[65] = tested on: XF498
[66] = tested on: LOX IMVI
[67] = tested on: T47D

CN1C(=O)C(C)(C)C2(SC(C)(C)C2(C)C)N(C)C1=S (stereo not drawn)
GI50 [1]: > 100 µM (inactive) | GI50 [2]: > 100 µM (inactive) | GI50 [3]: > 100 µM (inactive) | GI50 [4]: > 100 µM (inactive) | GI50 [5]: > 100 µM (inactive) | GI50 [6]: > 100 µM | GI50 [7]: > 100 µM (inactive) | GI50 [8]: > 100 µM (inactive) | GI50 [9]: > 100 µM (inactive) | GI50 [10]: 36.1 µM (inactive) | GI50 [11]: > 10 µM (inactive) | GI50 [12]: > 100 µM (inactive) | GI50 [13]: > 100 µM (inactive) | GI50 [14]: 32 µM (inactive) | GI50 [15]: 8.49 µM (inactive) | GI50 [16]: > 100 µM (inactive) | GI50 [17]: > 100 µM (inactive) | GI50 [18]: 27.8 µM (inactive) | GI50 [19]: 2.12 µM (inactive) | GI50 [20]: > 100 µM (inactive) | GI50 [21]: > 100 µM (inactive) | GI50 [22]: > 100 µM (inactive) | GI50 [23]: > 100 µM (inactive) | GI50 [24]: > 100 µM (inactive) | GI50 [25]: > 100 µM (inactive) | GI50 [26]: > 100 µM (inactive) | GI50 [27]: > 100 µM (inactive) | GI50 [28]: > 100 µM (inactive) | GI50 [29]: > 100 µM (inactive) | GI50 [30]: > 100 µM (inactive) | GI50 [31]: > 100 µM (inactive) | GI50 [32]: > 100 µM (inactive) | GI50 [33]: > 100 µM (inactive) | GI50 [34]: > 100 µM (inactive) | GI50 [35]: > 100 µM (inactive) | GI50 [36]: > 100 µM (inactive) | GI50 [37]: 55.3 µM (inactive) | GI50 [38]: > 100 µM (inactive) | GI50 [39]: 96.2 µM (inactive) | GI50 [40]: > 100 µM (inactive) | GI50 [41]: > 100 µM (inactive) | GI50 [42]: 53.8 µM (inactive) | GI50 [43]: > 100 µM (inactive) | GI50 [44]: > 100 µM (inactive) | GI50 [45]: 67.3 µM (inactive) | GI50 [46]: > 100 µM (inactive) | GI50 [47]: > 100 µM (inactive) | GI50 [48]: 89.3 µM (inactive) | GI50 [49]: > 100 µM (inactive) | GI50 [50]: > 100 µM (inactive) | GI50 [51]: 86.7 µM (inactive) | GI50 [52]: > 100 µM (inactive) | GI50 [53]: > 100 µM (inactive)

COC1(C)Cc2c(c(C)c(O)c3c2C(=O)C=C(Cl)C3=O)O1 (stereo not drawn)
GI50 [1]: 13.5 µM (inactive) | GI50 [54]: 16.1 µM (inactive) | GI50 [2]: 16.4 µM (inactive) | GI50 [4]: 3.39 µM (inactive) | GI50 [5]: > 100 µM (inactive) | GI50 [6]: 45.8 µM | GI50 [7]: > 64.6 µM (inactive) | GI50 [8]: > 100 µM (inactive) | GI50 [10]: > 100 µM (inactive) | GI50 [55]: > 100 µM (inactive) | GI50 [11]: 40.8 µM (inactive) | GI50 [12]: > 56.5 µM (inactive) | GI50 [13]: > 100 µM (inactive) | GI50 [56]: > 100 µM (inactive) | GI50 [14]: > 100 µM (inactive) | GI50 [15]: 20.4 µM (inactive) | GI50 [16]: 19.8 µM (inactive) | GI50 [17]: 14.7 µM (inactive) | GI50 [18]: 18.9 µM (inactive) | GI50 [19]: 35.8 µM (inactive) | GI50 [20]: > 100 µM (inactive) | GI50 [21]: > 100 µM (inactive) | GI50 [22]: > 100 µM (inactive) | GI50 [23]: > 87.3 µM (inactive) | GI50 [24]: 25.4 µM (inactive) | GI50 [57]: 91.4 µM (inactive) | GI50 [25]: > 65.6 µM (inactive) | GI50 [26]: > 100 µM (inactive) | GI50 [27]: 55.5 µM (inactive) | GI50 [58]: > 100 µM (inactive) | GI50 [28]: > 75.5 µM (inactive) | GI50 [29]: 16 µM (inactive) | GI50 [30]: > 100 µM (inactive) | GI50 [31]: > 100 µM (inactive) | GI50 [59]: 41.8 µM (inactive) | GI50 [32]: > 84.1 µM (inactive) | GI50 [60]: > 100 µM (inactive) | GI50 [33]: > 100 µM (inactive) | GI50 [34]: 44.5 µM (inactive) | GI50 [35]: 41.3 µM (inactive) | GI50 [36]: 44.2 µM (inactive) | GI50 [37]: 3.89 µM (inactive) | GI50 [38]: > 100 µM (inactive) | GI50 [61]: 34.9 µM (inactive) | GI50 [39]: 3.48 µM (inactive) | GI50 [40]: > 100 µM (inactive) | GI50 [41]: 18.2 µM (inactive) | GI50 [42]: 8.75 µM (inactive) | GI50 [62]: > 100 µM (inactive) | GI50 [63]: 23.5 µM (inactive) | GI50 [43]: 28.9 µM (inactive) | GI50 [44]: 15.1 µM (inactive) | GI50 [64]: 22.7 µM (inactive) | GI50 [45]: 28 µM (inactive) | GI50 [46]: 39.7 µM (inactive) | GI50 [47]: 66.8 µM (inactive) | GI50 [48]: 7.5 µM (inactive) | GI50 [49]: 40.2 µM (inactive) | GI50 [65]: 23.6 µM (inactive) | GI50 [50]: > 88.1 µM (inactive) | GI50 [66]: 44.8 µM (inactive) | GI50 [51]: 16.9 µM (inactive) | GI50 [52]: 21.8 µM (inactive) | GI50 [67]: 13.4 µM (inactive) | GI50 [53]: 15.7 µM (inactive)
